Experimental data: patent publication US20130281399A1, “TREATMENT OF DISEASES BY EPIGENETIC REGULATION” (RVX Therapeutics Inc., priority 2012, published 2013)

Experiments:
[1] = biological target: T1, Brd4 bromodomain 1 (Homo sapiens, UniProt O60885); assay: Inhibition of binding of tetra-acetylated histone H4 to Brd4 bromodomain 1 (TR-FRET); details: His-tagged Brd4 bromodomain 1 200 nM, tetra-acetylated histone H4 peptide 25-50 nM, 2 hours room temperature
T1 construct: made in house; host or cells: E. coli BL21(DE3)
Outline: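 His-tagged Brd4 BD1 was expressed in E. coli and purified by Ni affinity and size exclusion. TR-FRET competition with tetra-acetylated H4 was run in 30 mM HEPES pH 7.4, 30 mM NaCl, 0.3 mM CHAPS, 20 mM phosphate pH 7.0, 320 mM KF and 0.08% BSA, with 0.2% DMSO.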

| Structure (SMILES) | FRET activity (<50 uM) [1] | melting point |
| --- | --- | --- |
| COc1cc(OCCN2CCCC2)cc2nc(-c3cc(C)nc(C)c3)[nH]c(=O)c12 [Example 106, 2-(2,6-Dimethylpyridin-4-yl)-5-methoxy-7-(2-(pyrrolidin-1-yl)ethoxy)quinazolin-4(3H)-one] | Active | 227 to 229 °C |
| COc1cc(OCCOc2ccccc2)c2c(=O)[nH]c(-c3cc(C)nc(C)c3)nc2c1 [Example 104, 2-(2,6-Dimethylpyridin-4-yl)-7-methoxy-5-(2-phenoxyethoxy)quinazolin-4(3H)-one] | Active | 172.3 to 173.2 °C |
| COc1cc(OC)c2c(=O)[nH]c(-c3cc(C)nc(C)c3)nc2c1 [Example 99, 2-(2,6-Dimethylpyridin-4-yl)-5,7-dimethoxyquinazolin-4(3H)-one] | Active | 291 to 292 °C |
| COCCOc1cc(OCCN2CCCC2)c2c(=O)[nH]c(-c3cc(C)nc(C)c3)nc2c1 [Example 111, 2-(2,6-Dimethylpyridin-4-yl)-7-(2-methoxyethoxy)-5-(2-(pyrrolidin-1-yl)ethoxy)quinazolin-4(3H)-one] | Active | 60.4 to 62.3 °C |
| COCCOc1cc(OC)c2c(=O)[nH]c(-c3ccc(N4C[C@@H](C)N(C(C)=O)[C@@H](C)C4)cc3)nc2c1 [Example 9, 2-(4-((3R,5S)-4-Acetyl-3,5-dimethylpiperazin-1-yl)phenyl)-5-methoxy-7-(2-methoxyethoxy)quinazolin-4(3H)-one] | Active | 225 to 227 °C |
| COCCOc1cc(OC)c2c(=O)[nH]c(-c3cc(C)nc(C)c3)nc2c1 [Example 100, 2-(2,6-Dimethylpyridin-4-yl)-5-methoxy-7-(2-methoxyethoxy)quinazolin-4(3H)-one] | Active | 228.8 to 230.4 °C |
| COc1cc(OC)c2c(=O)[nH]c(-c3cc(C)c(CCCN4CCCC4)c(C)c3)nc2c1 [Example 77, 2-(3,5-Dimethyl-4-(3-(pyrrolidin-1-yl)propyl)phenyl)-5,7-dimethoxyquinazolin-4(3H)-one] | Active | 194 to 196 °C |
| Cc1cc(-c2nc3cc(OCCOC(C)C)cc(OCCOC(C)C)c3c(=O)[nH]2)cc(C)n1 [Example 108, 2-(2,6-dimethylpyridin-4-yl)-5,7-bis(2-isopropoxyethoxy)quinazolin-4(3H)-one] | Active | 124 to 125 °C |
| COc1cc(OC)c2c(=O)[nH]c(-c3ccc(CN4C(=O)CNC4=O)cc3)nc2c1 [Example 80, 3-(4-(5,7-Dimethoxy-4-oxo-3,4-dihydroquinazolin-2-yl)benzyl)imidazolidine-2,4-dione] | Inactive | 317 to 318 °C |
| COc1cc(OC)c2c(=O)[nH]c(-c3cc(C)c(OCCN4CCCCCC4)c(C)c3)nc2c1 [Example 84, 2-(4-(2-(Azepan-1-yl)ethoxy)-3,5-dimethylphenyl)-5,7-dimethoxyquinazolin-4(3H)-one] | Active | 198 to 199 °C |
| Cc1cc(-c2nc3cc(OC(C)C)cc(OC(C)C)c3c(=O)[nH]2)cc(C)c1OCCN1CCCC1 [Example 88, 2-(3,5-Dimethyl-4-(2-(pyrrolidin-1-yl)ethoxy)phenyl)-5,7-diisopropoxyquinazolin-4(3H)-one] | Inactive | 65 to 68 °C |
| COc1cc(OCCN2CCCC2)c2c(=O)[nH]c(-c3cc(C)nc(C)c3)nc2c1 [Example 102, 2-(2,6-Dimethylpyridin-4-yl)-7-methoxy-5-(2-(pyrrolidin-1-yl)ethoxy)quinazolin-4(3H)-one] | Active | 190 to 191 °C |
| COc1cc(OC)c2c(=O)[nH]c(-c3cc(C)c(OCCCCN4CCCC4)c(C)c3)nc2c1 [Example 78, 2-(3,5-Dimethyl-4-(4-(pyrrolidin-1-yl)butoxy)phenyl)-5,7-dimethoxyquinazolin-4(3H)-one] | Active | 180 to 181 °C |
